Assay results: patent US7053043B1, “Pharmaceutical compositions comprising synthetic peptide copolymers and methods for preventing and treating GVHD and HVGD” (Yeda Research and Development Co.Ltd., priority 1999, dated 2006)

Tests used:
skin graft rejection = assay: Skin graft transplantation model for HVGD; assay type: in vivo, mice; details: B10.D2 → BALB/c, FK506 300 μg/day ip, 7 injections from day −2
Experimental: Recipient mice were dorsally transplanted with circular pieces of donor skin. Mice were inspected daily. Grafts were considered rejected when no viable donor epidermis remained. The results are expressed in mean survival time (MST). P values were obtained by analysis of variance (ANOVA).
[…] The first Cop 1 treatment on day −7 was injected sc in ICFA as a depot dose. Control mice were treated daily with PBS alone and PBS with ICFA on day −7 before transplantation.
Grafts were inspected daily. Rejection was considered positive when no viable donor epidermis remained. […]

[1] = system: function of transplanted thyroids; assay: Thyroid graft assay for HVGD (125I absorption of thyroid transplanted in kidney capsule); assay type: in vivo, mice; details: B10.D2 → BALB/c, FK506 300 μg
Experimental: In this transplantation model for HVGD, thyroid glands from donor mice were transplanted in the kidney's capsules of recipient mice. One week later the transplanted mice were injected with ^125I, and the radioactivity of each kidney (the recipient or the untransplanted kidney) was measured after 20 hours. Δcpm was calculated by subtracting the ^125I absorbance of the untransplanted kidneys from the ^125I absorbance of the recipient kidneys in the same treatment. The mean function index (MFI) for treatment was calculated by dividing the mean Δcpm for the tested (Copolymer 1) treatment by the mean Δcpm for the PBS treatment. P values were obtained by the t test. This assay indicates objectively and quantitatively not only the graft survival, but also the function (iodine absorbance) of the transplanted thyroid tissue (Isakov et al., 1979).
The transplanted mice were treated daily with Copolymer 1 600 μg/day (300 μg ip+300 μg sc) in PBS solution, starting 7 days before transplantation. The first Cop 1 treatment on day −7 was injected sc in ICFA as a depot dose. Control mice were treated daily with PBS alone and PBS with ICFA on day −7 before transplantation.
To test the effect of Copolymer 1 treatment on the function of transplanted thyroids in the B10.D2→BALB/c model, thyroid glands from donors B10.D2 were transplanted in the kidney's capsules of BALB/c mice. After one week the transplanted mice were injected with ^125I, and the radioactivity of each kidney was measured 20 hours later. cpm was calculated by subtracting the ^125I absorbance of the untransplanted kidneys from the ^125I absorbance of the recipient kidneys in the same treatment. The mean function index (MFI) for each treatment was calculated by dividing the mean ^125I absorbance of (transplanted kidney-untransplanted kidney) in the tested treatment by the mean ^125I absorbance of (transplanted kidney-untransplanted kidney) in the PBS treatment, as follows: […]

[2] = system: GVHD in B10.D2 → BALB/c recipients; assay: Murine lethal GVHD model after bone marrow transplantation, B10.D2/nSnJ→BALB/c; assay type: in vivo, mice; details: for overall incidence of GVHD: 600 μg per injection (ip + sc), Cop 1 Batch I
Experimental: The murine GVHD model of B10.D2/nSnJ→BALB/c mice (both H-2^d) across minor histocompatibility barriers, was selected since it is similar to the MHC matched bone marrow transplantation in humans. For the induction of GVHD, 10×10^6 bone marrow and 100×10^6 spleen cells from B10.D2 mice were injected into lethally irradiated (8.0 Gy) BALB/c recipients. […] Recipient mice were 12–13 weeks at the time of transplantation.
Based on previous studies with Cop 1 in EAE (Sela et al., 1990; Teitelbaum et al., 1971; Teitelbaum et al., 1973) and class II-binding competitor peptides in GVHD (Schlegel et al., 1994), the dosage of 600 μg per injection was selected, half of which was administered intraperitoneally (ip), whereas the other half was given subcutaneously (sc). Treatment of BALB/c recipient mice was initiated on day −1, followed by daily injections for the first five weeks starting on day 0 after transplantation. The frequency of injections was tapered to three times per week for the subsequent two weeks and to two times per week for another two weeks and then discontinued. Throughout the experiment, copolymers and controls were administered once a week with incomplete Freund's adjuvant (IFA) ip as a depot dose (Schlegel et al., 1994). Treatment was discontinued 9 weeks after transplantation.
Mice were followed up daily for 140 days after bone marrow transplantation for signs of GVHD. Disease severity was assessed by mortality, loss of body weight, and by the extent of macroscopic skin involvement scored on a cumulative scale (from min O— max 8): head 1, neck 1, back (1/3, 2/3, 3/3) 1–3, front (1/3, 2/3, 3/3) 1–3. Skin biopsies were examined as previously described (Schlegel et al., 1994).
(ii) Effect of Copolymer 1 Treatment on the Incidence, Onset and Severity of GVHD. […] For the first five weeks after transplant mice were injected daily as outlined in Materials and Methods, followed by a tapering schedule over an additional four weeks.
(iii) Effect of Copolymer 1 treatment on survival. […]

[3] = system: T cell proliferation in MHC-disparate mixed lymphocyte cultures; assay: Mixed lymphocyte cultures across major histocompatibility barriers, six MHC-disparate strain combinations; assay type: cell-based, mice; details: 10–100 μg/well, all concentrations tested
Experimental: (§1) Responder cells for MLR reactions across major histocompatibility barriers were harvested from spleen of non-immunized mice while responder cells for MLR across minor histocompatibility barriers were harvested from mice which were preimmunized with irradiated (30 Gy) 50×10^6 stimulator spleen cells 21 days before. Responder cells (5×10^5 spleen cells per well) were tested for their proliferative response by plating with different amounts (2.5 to 10×10^5) of irradiated stimulator cells, in presence or absence of various peptide inhibitors (10–100 μg per well). Cultures were set up in 200 μl media containing 10% FCS in flat-bottom microtiter plates. After 4 days of incubation, cultures were pulsed with 1 μCi of [^3H]thymidine for an additional 16 hours. Results are represented as mean counts per minute (cpm) thymidine incorporation from triplicate cultures.

[4] = system: proliferation of B10.PL (H-2u) responder cells to PL/J stimulator cells; assay: Mixed lymphocyte reaction (MLR) across minor histocompatibility barriers; assay type: cell-based, mice; details: 20 μg/well, Cop 1 Batch I, 1:1 ratio of responder to stimulator cells
Experimental: as §1
(§2) To investigate the feasibility of inhibition of MLR by Copolymer 1, an MLR system was developed in which Copolymer 1 was tested for its ability to inhibit the proliferation of B10.PL (H-2^u) responder cells to stimulator cells of either the same (PL/J) or different (BALB/c) H-2 haplotype. For comparison, the inhibitory MBP Ac 1-11[4A], MBP 35-47, a combination of Ac 1-1[4A]+MBP 35-47, MBP 89-101 and KM-core peptides, described in Schlegel et al. (1994), were used in the MLR experiments.
(§3) The inhibition obtained by Copolymer 1 was similar (in response to minor histocompatibility antigen) or even higher (in response to major histocompatibility antigen) than the inhibition obtained with the combination of the two synthetic peptides Ac 1-11[4A] and MBP 35-47, which specifically bind to the class II molecules I-A^u and the I-E^u, respectively. The molar efficiency of Copolymer 1 of M.W. 6000 is even higher since the molecular weight of the synthetic peptides is 4–5 fold lower.

[5] = system: proliferation of B10.PL (H-2u) responder cells to BALB/c stimulator cells; assay: Mixed lymphocyte reaction (MLR) across major histocompatibility barriers, B10.PL vs BALB/c; assay type: cell-based, mice; details: 20 μg/well, Cop 1 Batch I, 1:1 ratio of responder to stimulator cells
Experimental: as §1, §2, §3

C=CC[C@@H]1/C=C(\C)C[C@H](C)C[C@H](OC)[C@H]2O[C@@](O)(C(=O)C(=O)N3CCCC[C@H]3C(=O)O[C@H](/C(C)=C/[C@@H]3CC[C@@H](O)[C@H](OC)C3)[C@H](C)[C@@H](O)CC1=O)[C@H](C)C[C@@H]2OC [FK506]
MST ± SD (Mean Survival Time of skin graft) (skin graft rejection): 21.2 ± 4.3 days | MST ± SD (Mean Survival Time of skin graft) (skin graft rejection; listed as FK 506): 21.2 days | Mean 125I Absorption, Transplanted Kidney (cpm) [1]: 3117 cpm | Mean 125I Absorption, Untransplanted Kidney (cpm) [1]: 693 cpm | cpm (transplanted minus untransplanted kidney) [1]: 2424 cpm | MFI (mean function index) ([1]; folds over PBS treatment): 3.1

Hen egg-white lysozyme [HEL]
long-term survival from lethal graft-versus-host disease ([2]; 600 μg per injection): did not improve long-term survival | overall incidence of GVHD ([2]; day 30 after transplant): 100% | overall incidence of GVHD ([2]; day 70 after transplant): 100% | median onset of GVHD ([2]; days after transplant, 600 μg per injection): 22 days | inhibitory effect on the MLC [3]: no or only minimal inhibitory effect

KM-core: KMKMVAAHAKMKM (SEQ ID NO:3), based on the antigenic core sequence of ovalbumin 323–339 (KMKMVHAAHAKMKM)
inhibition of MLR [4]: did not induce any significant effect | inhibition of MLR [5]: did not induce any significant effect

MBP 89-101: peptide VHFFKNIVTPRTP (SEQ ID NO:4) of myelin basic protein
inhibition of MLR [4]: did not induce any significant effect | inhibition of MLR [5]: did not induce any significant effect
